Results reported in patent US20200178526A1, “Emulsifiable Concentrates” (priority 2016, published 2020).
Where two headings read alike, the source gives them in different places.

Key:
[1] = Solubility screening of bifenthrin in various solvents; type: physicochemical
Procedure: Four-milliliter (mL) vials are charged with bifenthrin (10 to 50 wt %), a stir bar, and solvent (90 to 50 wt %). The vials are capped and taped to seal. The vials are secured in a vial rack and shaken on a laboratory shaker for 12 hours at ambient lab temperature (21° C.) and humidity (51%). After 12 hours each sample set is evaluated for solubility of solid:
Yes—Homogeneous clear solution
No—Solids present in the sample

[2] = obtained from Hansen's book, pages 399 and 418; cited from earlier work
[3] = bifenthrin 10 wt % in solvent, shaken 12 hours at 21° C., humidity 51%
[4] = bifenthrin 20 wt % in solvent, shaken 12 hours at 21° C., humidity 51%
[5] = bifenthrin 30 wt % in solvent, shaken 12 hours at 21° C., humidity 51%
[6] = bifenthrin 40 wt % in solvent, shaken 12 hours at 21° C., humidity 51%
[7] = bifenthrin 50 wt % in solvent, shaken 12 hours at 21° C., humidity 51%

| Solubility of Bifenthrin, 10 wt % [1] | Solubility of Bifenthrin, 20 wt % [1] | Solubility of Bifenthrin, 30 wt % [1] | Solubility of Bifenthrin, 40 wt % [1] | Solubility of Bifenthrin, 50 wt % [1] | Molecule | Hansen Parameter δH (hydrogen bonding) [2] | Hansen Parameter δP (polar) [2] | Solubility of Bifenthrin, 10 wt % [1, 3] | Solubility of Bifenthrin, 20 wt % [1, 4] | Solubility of Bifenthrin, 30 wt % [1, 5] | Solubility of Bifenthrin, 40 wt % [1, 6] | Solubility of Bifenthrin, 50 wt % [1, 7] |
| --- | --- | --- | --- | --- | --- | --- | --- | --- | --- | --- | --- | --- |
| YES | YES | YES | NO | NO | CCCCOCCOCCOC(C)=O [BUTYL CARBITOL ™ ACETATE, diethylene glycol n-butyl ether acetate] | 8.2 (J/cc)^1/2 | 4.1 (J/cc)^1/2 | – | – | – | – | – |
| – | – | – | – | – | CCCCOCCOC(C)=O [BUTYL CELLOSOLVE ™ ACETATE, ethylene glycol n-butyl ether acetate] | 8.8 (J/cc)^1/2 | 4.5 (J/cc)^1/2 | YES | YES | YES | YES | NO |
| YES | YES | NO | NO | NO | CCOCCOCCO [CARBITOL ™, diethylene glycol monoethyl ether] | – | – | – | – | – | – | – |
| YES | YES | NO | NO | NO | CCCCCCCCCCCC(=O)OCC [DIAMOSOLV ™ 323, ethyl laurate] | – | – | – | – | – | – | – |
| YES | NO | NO | NO | NO | CC(CO)OCC(C)Oc1ccccc1 (centres unmarked) [DOWANOL ™ DiPPH, dipropylene glycol phenyl ether] | – | – | – | – | – | – | – |
| – | – | – | – | – | OCCOc1ccccc1 [DOWANOL ™ EPH, ethylene glycol phenyl ether] | – | – | NO | NO | NO | NO | NO |
| YES | YES | YES | NO | NO | CC(=O)OCC(C)OC(C)=O (centres unmarked) [DOWANOL ™ PGDA, propylene glycol diacetate] | – | – | – | – | – | – | – |
| YES | NO | NO | NO | NO | CC(O)COc1ccccc1 (centres unmarked) [DOWANOL ™ PPH, propylene glycol phenyl ether] | – | – | – | – | – | – | – |
| YES | YES | NO | NO | NO | CCCCOC(C)COC(C)COC(C)CO (centres unmarked) [DOWANOL ™ TPNB, tripropylene glycol n-butyl ether] | – | – | – | – | – | – | – |
| YES | YES | YES | NO | NO | CCCCOCCOC(=O)c1ccccc1 [XU40782.00, ethylene glycol n-butyl ether benzoate] | – | – | – | – | – | – | – |
| – | – | – | – | – | polyethylene glycol monophenyl ether [DOWANOL ™ EPH6] | – | – | NO | NO | NO | NO | NO |
